Source: ChEMBL document CHEMBL1201862, “PubChem BioAssay data set” (2004)
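Assay format: 96-well plates, 48-hour exposure. Abbreviation: GI50, concentration required for 50% inhibition of growth.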 Activity calls are given as the source filed them. Cut-off read from the data, not from the text of the source: active = GI50 up to about 1.1 µM and inactive = higher.

Experiments:
Assay in all cases: growth of human tumour cells (NCI), 48 h
786-0 = test system: 786-0
A549 = test system: A549
COLO 205 = test system: COLO 205
EKVX = test system: EKVX
HOP-92 = test system: HOP-92
K562 = test system: K562
KM12 = test system: KM12
MDA-MB-231 = test system: MDA-MB-231
MDA-MB-435 = test system: MDA-MB-435
MDA-N = test system: MDA-N
NCI-H522 = test system: NCI-H522
NCI/ADR-RES = test system: NCI/ADR-RES
OVCAR-8 = test system: OVCAR-8
SF-268 = test system: SF-268
SF-295 = test system: SF-295
SF-539 = test system: SF-539
SK-MEL-28 = test system: SK-MEL-28
SK-MEL-2 = test system: SK-MEL-2
SK-OV-3 = test system: SK-OV-3
TK-10 = test system: TK-10

Measured: GI50

COc1ccc2c3c(ccc2c1)NC(C(=O)O)CC3 (stereo not given)
inactive: 786-0 97.7 µM | A549 62.1 µM | COLO 205 39.5 µM | EKVX 67.8 µM | HOP-92 79.4 µM | K562 35.2 µM | KM12 67.3 µM | MDA-MB-231 85.7 µM | MDA-MB-435 60.4 µM | MDA-N 57.8 µM | NCI-H522 29.2 µM | NCI/ADR-RES 46.3 µM | OVCAR-8 64.4 µM | SF-268 39.1 µM | SF-295 58.5 µM | SF-539 80.4 µM | SK-MEL-28 67.8 µM | SK-MEL-2 > 100 µM | SK-OV-3 > 100 µM | TK-10 52.1 µM

O=C1c2c(ccc3c2CCC3)CC12Cc1cc3c(cc1C2)CCC3
inactive: 786-0 > 100 µM | A549 > 100 µM | COLO 205 > 100 µM | EKVX > 100 µM | HOP-92 > 100 µM | K562 > 100 µM | KM12 > 100 µM | MDA-MB-231 > 100 µM | MDA-MB-435 > 100 µM | MDA-N > 100 µM | NCI-H522 > 100 µM | NCI/ADR-RES > 100 µM | OVCAR-8 > 100 µM | SF-268 > 100 µM | SF-295 > 100 µM | SF-539 > 100 µM | SK-MEL-28 > 100 µM | SK-MEL-2 > 100 µM | SK-OV-3 > 100 µM | TK-10 > 100 µM

Cc1nc(N)nc(N)c1N1CCN(Cc2ccccc2)CC1
inactive: 786-0 4.73 µM | A549 3.56 µM | COLO 205 31.8 µM | EKVX > 53.6 µM | HOP-92 35.3 µM | K562 6.44 µM | KM12 27 µM | MDA-MB-231 > 86.3 µM | MDA-MB-435 11.4 µM | MDA-N 21.9 µM | NCI-H522 24.8 µM | NCI/ADR-RES 12.8 µM | OVCAR-8 14.9 µM | SF-268 16.1 µM | SF-295 7.06 µM | SF-539 27.2 µM | SK-MEL-28 > 78.9 µM | SK-MEL-2 64.6 µM | SK-OV-3 > 55.1 µM | TK-10 66.1 µM

Cc1n[nH]c(=O)c2c3c([nH]c12)-c1ccccc1C3
inactive: 786-0 > 100 µM | A549 > 100 µM | COLO 205 > 100 µM | EKVX > 100 µM | HOP-92 > 100 µM | K562 > 100 µM | KM12 > 100 µM | MDA-MB-231 66.4 µM | MDA-MB-435 > 100 µM | MDA-N > 100 µM | NCI-H522 > 100 µM | NCI/ADR-RES > 100 µM | OVCAR-8 > 100 µM | SF-268 > 100 µM | SF-295 > 100 µM | SF-539 > 100 µM | SK-MEL-28 > 100 µM | SK-MEL-2 > 100 µM | SK-OV-3 > 100 µM | TK-10 63.4 µM
